Assay results as given in BindingDB's records for doi:10.1021/jm060199b (Abbott Laboratories, 2006).

Biological target: Mitogen-activated protein kinase 8 (Homo sapiens, UniProt P45983)
Assay: ATF-2 Phosphorylation Assay

Sequence of Mitogen-activated protein kinase 8 (P45983 whole entry): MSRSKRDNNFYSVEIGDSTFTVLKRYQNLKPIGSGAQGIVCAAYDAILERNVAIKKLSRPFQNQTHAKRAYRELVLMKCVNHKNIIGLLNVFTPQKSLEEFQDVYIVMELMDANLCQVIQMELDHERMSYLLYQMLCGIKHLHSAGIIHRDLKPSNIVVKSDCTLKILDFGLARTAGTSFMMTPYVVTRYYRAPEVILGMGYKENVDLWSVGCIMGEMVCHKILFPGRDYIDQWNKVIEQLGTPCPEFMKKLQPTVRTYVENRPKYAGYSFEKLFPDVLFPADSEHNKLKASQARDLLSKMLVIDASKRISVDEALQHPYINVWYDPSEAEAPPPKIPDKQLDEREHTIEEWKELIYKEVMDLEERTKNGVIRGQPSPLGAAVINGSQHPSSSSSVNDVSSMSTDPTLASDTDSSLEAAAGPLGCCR

CCOc1cccc(NC(C)=O)n1 [N-(6-ethoxypyridin-2-yl)acetamide]
IC50: > 10 µM
